Measurements taken from EP2926811A1, “ARTEMETHER-CONTAINING PHARMACEUTICAL COMPOSITION, PREPARATION, AND USE THEREOF” (Kunming Pharmaceutical Corp., priority 2012, dated 2014).
Read-outs that look alike come from different tables or passages of the source. Values belong to the molecule of their own block, whether it stands above or below them.

Key:
Format in all cases: cell-based
[1] = tested on: K562 cells; assay: modified MTT method, proliferation of K562 cells; conditions: Homo sapiens, read-out: IC50 on the growth of K562 cells
Description: (§1) Five test concentrations 2, 10, 50, 250 and 500 µM were set for each of five derivatives of artemisinin, artemether drug substance, artemisinin, dihydroartemisinin, artesunate were dissolved with dimethyl sulfoxide (DMSO), while the lyophilized powder of artemether was dissolved with normal saline (N.S.), followed by addition of a certain amount of RPMI 1640 complete culture solution to formulate a high-concentration solution, and each of the low-concentration solutions was formulated by proportionate dilution from the high-concentration solution.
(§2) The concentrations of DMSO contained in the solutions at the two relatively high concentrations 500 and 250 µM for the artemether drug substance, artemisinin, dihydroartemisinin, artesunate, used as solvent controls, were formulated with […] culture solution, at which time the test concentrations of DMSO were 1% and 0.5%. The concentrations of the excipients contained in the solutions at the two relatively high concentrations 500 and 250 µM for the preparation of lyophilized powder of artemether were used as solvent controls.
(§3) The positive control was an anti-cancer drug adriamycin (ADM), which was set at three test concentrations (final concentrations) of 0.1, 1 and 10 µg/ml. To ADM stock solution (1 mg/ml) a certain amount of PRMI 1640 complete culture solution was added, to formulate a high-concentration solution, and each of the low-concentration solutions were formulated by proportionate dilutions from the high-concentration solution.
(§4) HL-60: (human promyelocytic leukemia cell line); K562 (human chronic myelocytic leukemia cell line); HT-29 (human colon cancer cell line); PC-3 (human prostate cancer cell line); A549 (human non-small cell lung cancer cell line); MKN-28 (human gastric cancer cell line); Hep2 (human laryngeal cancer cell line), all of which were purchased from Cell Bank of Shanghai Institutes for Biological Sciences, the Chinese Academy of Sciences.
(§5) Influence of the five test samples on the proliferation of 7 human tumor cell lines was determined via a modified MTT method.
(§6) Cells in logarithmic growth phase were taken, adjusted to a certain concentration and then added into a 96 well culture plate. After culture of adherent cells for a period until adherence, the test samples were added; and for suspension cells, the test samples were added after inoculation. 5 test concentrations 2, 10, 50, 250 and 500 µM were set, with 3 parallel wells for each concentration, 10 µl/well; the solvent controls were 0.5% and 1% of isovolumetric DMSO, and the positive controls was ADM at 3 concentrations 0.1, 1 and 10 µg/ml. The samples were loaded followed by culture for a period of time in an incubator at 37°C, 5% CO2, followed by addition of MTT (5 mg/ml) at 20 µl/well, and continued to be cultured for a period of time and added with a three-combined solution [10% SDS - 5% isobutanol - 0.012 mol/L HCl (W/V/V)]. After dissolving in uniformity, it was continued to be placed in the incubator at 37°C, 5% CO2 for a period of time, and the OD value of each well was determined under a wavelength of 570 nm with a microplate reader, according to which the results were calculated.
(§7) The cellular proliferation inhibition rate was calculated in accordance with the following equation: Inhibition rate (%) = (OD valuecontrol well-OD valuesample well)/OD valuecontrol well × 100% [formula]
(§8) When the inhibition rate of DMSO on cells was more than 15%, calculation was carried out using the following equation: Inhibition rate (%) = (OD valuesolvent group-OD valueadministered well)/OD valuesolvent group × 100% [formula]
(§9) The inhibition rate was calculated by using Microsoft Excel 2003, and median inhibitory concentration IC50 was calculated with a LOGIT method, which was used as an indicator for judging the inhibitory capability.

[2] = tested on: HL-60 cells; assay: modified MTT method, proliferation of HL-60 cells; conditions: Homo sapiens, read-out: IC50 on the growth of HL-60 cells
Description: as §1, §2, §3, §4, §5, §6, §7, §8, §9

[3] = tested on: A549 cells; assay: modified MTT method, proliferation of A549 cells; conditions: Homo sapiens, read-out: IC50 on the growth of A549 cells
Description: as §1, §2, §3, §4, §5, §6, §7, §8, §9

[4] = tested on: HT-29 cells; assay: modified MTT method, proliferation of HT-29 cells; conditions: Homo sapiens
Description: as §1, §2, §3, §4, §5, §6, §7, §8, §9
(§10) According to the results of preliminary screening, further experiments were adjusted such that more sensitive cell lines were screened out. […]

[5] = tested on: PC-3 cells; assay: modified MTT method, proliferation of PC-3 cells; conditions: Homo sapiens, read-out: IC50 on the growth of PC-3 cells
Description: as §1, §2, §3, §4, §5, §6, §7, §8, §9

[6] = tested on: MKN-28 cells; assay: modified MTT method, proliferation of MKN-28 cells; conditions: Homo sapiens, MKN-28, 72 h, secondary screening
Description: as §1, §2, §3, §4, §5, §6, §7, §8, §9, §10

[7] = tested on: Hep2 cells; assay: modified MTT method, proliferation of Hep2 cells; conditions: Homo sapiens, HEp-2, 72 h, secondary screening
Description: as §1, §2, §3, §4, §5, §6, §7, §8, §9, §10

[8] = HT-29, 24 h, preliminary screening, Batch 1, 24 h, read-out: IC50 on the growth of HT-29 cells
[9] = HT-29, 24 h, preliminary screening, Batch 2, 24 h, read-out: IC50 on the growth of HT-29 cells
[10] = HT-29, 48 h, preliminary screening, Batch 1, 48 h, read-out: IC50 on the growth of HT-29 cells
[11] = HT-29, 48 h, preliminary screening, Batch 2, 48 h, read-out: IC50 on the growth of HT-29 cells
[12] = HT-29, 72 h, preliminary screening, Batch 1, 72 h, read-out: IC50 on the growth of HT-29 cells
[13] = HT-29, 72 h, preliminary screening, Batch 2, 72 h, read-out: IC50 on the growth of HT-29 cells
[14] = HT-29, 72 h, secondary screening, 72 h, Batch 1, read-out: IC50 on the growth of HT-29 cells (72 h)
[15] = HT-29, 72 h, secondary screening, 72 h, Batch 2, read-out: IC50 on the growth of HT-29 cells (72 h)
[16] = HT-29, 72 h, secondary screening, 72 h, Batch 3, read-out: IC50 on the growth of HT-29 cells (72 h)
[17] = HT-29, 72 h, secondary screening, 72 h, average, read-out: IC50 on the growth of HT-29 cells (72 h)
[18] = Average, read-out: IC50 on the growth of MKN-28 cells (72 h)
[19] = Batch 1, read-out: IC50 on the growth of MKN-28 cells (72 h)
[20] = Batch 2, read-out: IC50 on the growth of MKN-28 cells (72 h)
[21] = Batch 3, read-out: IC50 on the growth of MKN-28 cells (72 h)
[22] = Batch 1, read-out: IC50 on the growth of Hep2 cells (72 h)
[23] = Batch 2, read-out: IC50 on the growth of Hep2 cells (72 h)
[24] = Batch 3, read-out: IC50 on the growth of Hep2 cells (72 h)
[25] = average, read-out: IC50 on the growth of Hep2 cells (72 h)

IC50 ([1]; K562, 24 h, Batch 1, 24 h): 7.09 µM
IC50 ([1]; K562, 24 h, Batch 2, 24 h): 5.76 µM
IC50 ([1]; K562, 24 h, Batch 3, 24 h): 2.59 µM
IC50 ([1]; K562, 48 h, Batch 1, 48 h): 1.9 µM
IC50 ([1]; K562, 48 h, Batch 2, 48 h): 0.24 µM
IC50 ([1]; K562, 48 h, Batch 3, 48 h): 1.69 µM
IC50 ([1]; K562, 72 h, Batch 1, 72 h): 0.17 µM
IC50 ([1]; K562, 72 h, Batch 2, 72 h): 0.00993 µM
IC50 ([1]; K562, 72 h, Batch 3, 72 h): 0.74 µM
IC50 ([2]; HL-60, 24 h, Batch 1, 24 h): 9.24 µM
IC50 ([2]; HL-60, 24 h, Batch 2, 24 h): 4.19 µM
IC50 ([2]; HL-60, 48 h, Batch 1, 48 h): 1.72 µM
IC50 ([2]; HL-60, 48 h, Batch 2, 48 h): 0.16 µM
IC50 ([2]; HL-60, 72 h, Batch 1, 72 h): 0.78 µM
IC50 ([2]; HL-60, 72 h, Batch 2, 72 h): 0.57 µM
IC50 ([3]; A549, 24 h, Batch 1, 24 h): 38.8 µM
IC50 ([3]; A549, 24 h, Batch 2, 24 h): > 100 µM
IC50 ([3]; A549, 48 h, Batch 1, 48 h): 10.7 µM
IC50 ([3]; A549, 48 h, Batch 2, 48 h): 0.62 µM
IC50 ([3]; A549, 72 h, Batch 1, 72 h): 0.76 µM
IC50 ([3]; A549, 72 h, Batch 2, 72 h): 0.19 µM
IC50 [4, 8]: 2.28 µM
IC50 [4, 9]: 3.81 µM
IC50 [4, 10]: 0.28 µM
IC50 [4, 11]: 0.59 µM
IC50 [4, 12]: 0.057 µM
IC50 [4, 13]: 0.11 µM
IC50 [4, 14]: 0.11 µM
IC50 [4, 15]: 0.19 µM
IC50 [4, 16]: 0.12 µM
IC50 [4, 17]: 0.11 µM
IC50 ([5]; PC-3, 24 h, Batch 1, 24 h): 33 µM
IC50 ([5]; PC-3, 24 h, Batch 2, 24 h): 47.8 µM
IC50 ([5]; PC-3, 48 h, Batch 1, 48 h): 7.6 µM
IC50 ([5]; PC-3, 48 h, Batch 2, 48 h): 9.62 µM
IC50 ([5]; PC-3, 72 h, Batch 1, 72 h): 3.16 µM
IC50 ([5]; PC-3, 72 h, Batch 2, 72 h): 3.74 µM
IC50 [6, 18]: 0.51 µM
IC50 [6, 19]: 0.52 µM
IC50 [6, 20]: 0.53 µM
IC50 [6, 21]: 0.47 µM
SMILES: COc1cccc2c1C(=O)c1c(O)c3c(c(O)c1C2=O)C[C@@](O)(C(=O)CO)C[C@@H]3O[C@H]1C[C@H](N)[C@H](O)[C@H](C)O1 [ADM, adriamycin]
IC50 [7, 22]: 0.41 µM
IC50 [7, 23]: 0.26 µM
IC50 [7, 24]: 1 µM
IC50 [7, 25]: 0.51 µM

IC50 ([1]; K562, 24 h, Batch 1, 24 h): > 1000 µM
IC50 ([1]; K562, 24 h, Batch 2, 24 h): > 1000 µM
IC50 ([1]; K562, 24 h, Batch 3, 24 h): 345 µM
IC50 ([1]; K562, 48 h, Batch 1, 48 h): > 1000 µM
IC50 ([1]; K562, 48 h, Batch 2, 48 h): > 1000 µM
IC50 ([1]; K562, 48 h, Batch 3, 48 h): 331 µM
IC50 ([1]; K562, 72 h, Batch 1, 72 h): > 1000 µM
IC50 ([1]; K562, 72 h, Batch 2, 72 h): 893 µM
IC50 ([1]; K562, 72 h, Batch 3, 72 h): 137 µM
IC50 ([2]; HL-60, 24 h, Batch 1, 24 h): > 1000 µM
IC50 ([2]; HL-60, 24 h, Batch 2, 24 h): 658 µM
IC50 ([2]; HL-60, 48 h, Batch 1, 48 h): > 1000 µM
IC50 ([2]; HL-60, 48 h, Batch 2, 48 h): 77.2 µM
IC50 ([2]; HL-60, 72 h, Batch 1, 72 h): > 1000 µM
IC50 ([2]; HL-60, 72 h, Batch 2, 72 h): 248 µM
IC50 ([3]; A549, 24 h, Batch 1, 24 h): > 1000 µM
IC50 ([3]; A549, 24 h, Batch 2, 24 h): 641 µM
IC50 ([3]; A549, 48 h, Batch 1, 48 h): > 1000 µM
IC50 ([3]; A549, 48 h, Batch 2, 48 h): > 1000 µM
IC50 ([3]; A549, 72 h, Batch 1, 72 h): > 1000 µM
IC50 ([3]; A549, 72 h, Batch 2, 72 h): 832 µM
IC50 [4, 8]: > 1000 µM
IC50 [4, 9]: > 1000 µM
IC50 [4, 10]: > 1000 µM
IC50 [4, 11]: > 1000 µM
IC50 [4, 12]: 318 µM
IC50 [4, 13]: 579 µM
IC50 [4, 14]: 214 µM
IC50 [4, 15]: 263 µM
IC50 [4, 16]: 245 µM
IC50 [4, 17]: 255 µM
IC50 ([5]; PC-3, 24 h, Batch 1, 24 h): > 1000 µM
IC50 ([5]; PC-3, 24 h, Batch 2, 24 h): > 1000 µM
IC50 ([5]; PC-3, 48 h, Batch 1, 48 h): > 1000 µM
IC50 ([5]; PC-3, 48 h, Batch 2, 48 h): > 1000 µM
IC50 ([5]; PC-3, 72 h, Batch 1, 72 h): > 1000 µM
IC50 ([5]; PC-3, 72 h, Batch 2, 72 h): > 1000 µM
IC50 [6, 18]: 402 µM
IC50 [6, 19]: 27900 µM
IC50 [6, 20]: 336 µM
IC50 [6, 21]: 520 µM
SMILES: CO[C@H]1O[C@@H]2O[C@@]3(C)CC[C@H]4[C@H](C)CC[C@@H]([C@H]1C)[C@@]24OO3 [artemether drug substance, (3R,5αS,6R,8αS,9R,10S,12R,12αR)-decahydro-10-methoxy-3,6,9-trimethyl-3,12-epoxy-12H-pyrano[4,3-j]-1,2-benzodioxepin]
IC50 [7, 22]: 412 µM
IC50 [7, 23]: > 1000 µM
IC50 [7, 24]: > 1000 µM
IC50 [7, 25]: > 1000 µM
